According to the NIST ThermoML archive (doi:10.1016/j.jct.2010.08.021):

Experiment: mn = molality of the nth substance listed, in mol/kg
Details: 101 kPa, Liquid; for speed of sound: Sing-around technique in a fixed-path interferometer; for mass density: Vibrating tube method

N[C@@H](CO)C(=O)O [L-serine] + O
Details | mass density [kg/m3] | speed of sound [m/s]
288.15 K, m1 = 0.0192 | 999.979 | 1467.9
288.15 K, m1 = 0.028 | 1000.38 | 1468.5
288.15 K, m1 = 0.037 | 1000.78 | 1468.9
288.15 K, m1 = 0.043 | 1001.05 | 1469.4
288.15 K, m1 = 0.0486 | 1001.3 | 1469.8
288.15 K, m1 = 0.057 | 1001.68 | 1470.3
288.15 K, m1 = 0.0657 | 1002.07 | 1470.9
288.15 K, m1 = 0.0804 | 1002.73 | 1471.8
288.15 K, m1 = 0.0942 | 1003.34 | 1472.7
288.15 K, m1 = 0.1156 | 1004.3 | 1474.1
288.15 K, m1 = 0.1329 | 1005.07 | 1475.2
288.15 K, m1 = 0.1535 | 1005.99 | 1476.6
288.15 K, m1 = 0.1642 | 1006.46 | 1477.3
288.15 K, m1 = 0.1789 | 1007.11 | 1478.3
288.15 K, m1 = 0.1944 | 1007.8 | 1479.2
293.15 K, m1 = 0.0192 | 999.07 | 1484
293.15 K, m1 = 0.028 | 999.466 | 1484.5
293.15 K, m1 = 0.037 | 999.867 | 1485
293.15 K, m1 = 0.043 | 1000.13 | 1485.4
293.15 K, m1 = 0.0486 | 1000.38 | 1485.8
293.15 K, m1 = 0.057 | 1000.75 | 1486.3
293.15 K, m1 = 0.0657 | 1001.14 | 1486.8
293.15 K, m1 = 0.0804 | 1001.79 | 1487.8
293.15 K, m1 = 0.0942 | 1002.4 | 1488.7
293.15 K, m1 = 0.1156 | 1003.35 | 1490
293.15 K, m1 = 0.1329 | 1004.11 | 1491.1
293.15 K, m1 = 0.1535 | 1005.02 | 1492.4
293.15 K, m1 = 0.1642 | 1005.49 | 1493.1
293.15 K, m1 = 0.1789 | 1006.13 | 1494
293.15 K, m1 = 0.1944 | 1006.81 | 1495
298.15 K, m1 = 0.0192 | 997.9 | 1498.2
298.15 K, m1 = 0.028 | 998.291 | 1498.8
298.15 K, m1 = 0.037 | 998.691 | 1499.2
298.15 K, m1 = 0.043 | 998.951 | 1499.6
298.15 K, m1 = 0.0486 | 999.198 | 1500
298.15 K, m1 = 0.057 | 999.564 | 1500.5
298.15 K, m1 = 0.0657 | 999.952 | 1501
298.15 K, m1 = 0.0804 | 1000.6 | 1501.9
298.15 K, m1 = 0.0942 | 1001.2 | 1502.7
298.15 K, m1 = 0.1156 | 1002.14 | 1504
298.15 K, m1 = 0.1329 | 1002.89 | 1505.1
298.15 K, m1 = 0.1535 | 1003.79 | 1506.4
298.15 K, m1 = 0.1642 | 1004.26 | 1507
298.15 K, m1 = 0.1789 | 1004.89 | 1507.9
298.15 K, m1 = 0.1944 | 1005.57 | 1508.8
303.15 K, m1 = 0.0192 | 996.495 | 1510.5
303.15 K, m1 = 0.028 | 996.883 | 1511.1
303.15 K, m1 = 0.037 | 997.277 | 1511.5
303.15 K, m1 = 0.043 | 997.539 | 1511.9
303.15 K, m1 = 0.0486 | 997.781 | 1512.3
303.15 K, m1 = 0.057 | 998.143 | 1512.8
303.15 K, m1 = 0.0657 | 998.53 | 1513.2
303.15 K, m1 = 0.0804 | 999.17 | 1514.1
303.15 K, m1 = 0.0942 | 999.763 | 1514.9
303.15 K, m1 = 0.1156 | 1000.7 | 1516.2
303.15 K, m1 = 0.1329 | 1001.45 | 1517.2
303.15 K, m1 = 0.1535 | 1002.34 | 1518.5
303.15 K, m1 = 0.1642 | 1002.8 | 1519.1
303.15 K, m1 = 0.1789 | 1003.43 | 1520
303.15 K, m1 = 0.1944 | 1004.1 | 1520.8
308.15 K, m1 = 0.0192 | 994.871 | 1521.2
308.15 K, m1 = 0.028 | 995.258 | 1521.7
308.15 K, m1 = 0.037 | 995.648 | 1522.1
308.15 K, m1 = 0.043 | 995.908 | 1522.5
308.15 K, m1 = 0.0486 | 996.152 | 1522.9
308.15 K, m1 = 0.057 | 996.512 | 1523.4
308.15 K, m1 = 0.0657 | 996.896 | 1523.8
308.15 K, m1 = 0.0804 | 997.529 | 1524.7
308.15 K, m1 = 0.0942 | 998.119 | 1525.5
308.15 K, m1 = 0.1156 | 999.047 | 1526.7
308.15 K, m1 = 0.1329 | 999.793 | 1527.7
308.15 K, m1 = 0.1535 | 1000.68 | 1528.9
308.15 K, m1 = 0.1642 | 1001.14 | 1529.5
308.15 K, m1 = 0.1789 | 1001.76 | 1530.3
308.15 K, m1 = 0.1944 | 1002.43 | 1531.2
313.15 K, m1 = 0.0192 | 993.05 | 1530.3
313.15 K, m1 = 0.028 | 993.434 | 1530.8
313.15 K, m1 = 0.037 | 993.821 | 1531.2
313.15 K, m1 = 0.043 | 994.079 | 1531.6
313.15 K, m1 = 0.0486 | 994.322 | 1532
313.15 K, m1 = 0.057 | 994.68 | 1532.4
313.15 K, m1 = 0.0657 | 995.061 | 1532.8
313.15 K, m1 = 0.0804 | 995.691 | 1533.7
313.15 K, m1 = 0.0942 | 996.279 | 1534.4
313.15 K, m1 = 0.1156 | 997.203 | 1535.7
313.15 K, m1 = 0.1329 | 997.943 | 1536.6
313.15 K, m1 = 0.1535 | 998.827 | 1537.8
313.15 K, m1 = 0.1642 | 999.283 | 1538.4
313.15 K, m1 = 0.1789 | 999.905 | 1539.2
313.15 K, m1 = 0.1944 | 1000.57 | 1540
